Reference: patent US8212007B2, “Expression and purification of HIP/PAP and uses therefor” (priority 2007, dated 2012)

Tests used:
[1] = system: intestinal bacteria recovered from conventional mouse small intestine; assay: Flow cytometry binding to intestinal bacteria; settings: 30 μM conjugate, 40 minutes on ice, formaldehyde-fixed bacteria
Listeria monocytogenes = assay: Bactericidal activity after N-terminal cleavage with trypsin; assay type: cell-based; settings: 5 μM protein, 2 hours at 37° C., L. monocytogenes
Protocol: Eleven amino acids were truncated from the N-terminus HIP/PAP resulting in increase bactericidal activity.
Purified recombinant HIP/PAP was cleaved by the addition of bovine trypsin (Sigma) in a 1:200 molar ratio (trypsin:HIP/PAP). After 2 hours incubation at 37° C., 5 μM trypsin-treated HIP/PAP or uncleaved recombinant HIP/PAP was added to Listeria monocytogenes that had been grown to mid-log phase in brain-heart infusion (BHI) broth and resuspended in 25 mM MES pH 6, 25 mM NaCl. Initial bacterial concentrations ranged from 10^5 to 10^6 CFU/ml. After incubation for 2 hours at 37° C., viable bacteria were quantitated by dilution plating on BHI agar plates.

| Substance | binding of AlexaFluor555 conjugate to intestinal bacteria (flow cytometry) [1] | bactericidal activity with or without N-terminal truncation (11 amino acids) (Listeria monocytogenes) |
| --- | --- | --- |
| BSA-AlexaFluor555: AlexaFluor555-labeled BSA, control for flow cytometry binding to intestinal bacteria | no binding |  |
| trypsin-treated HIP/PAP: recombinant HIP/PAP cleaved with bovine trypsin, 11 amino acids removed from the N-terminus |  | increased bactericidal activity |
